According to ChEMBL document CHEMBL4041543, “Light induced drug release from a folic acid-drug conjugate” (Bioorg Med Chem Lett, 2017):

Experiment: Drug level treated with Photo Dox-Fol conjugate assessed as photolysis-mediated compound release in presence of 1.1 J/cm2 UV light irradiation by RP-HPLC method

In the case of `COc1cccc2c1C(=O)c1c(O)c3c(c(O)c1C2=O)C[C@@](O)(C(=O)CO)C[C@@H]3O[C@H]1C[C@H](N)[C@H](O)[C@H](C)O1`, the Drug metabolism is reported as “Metabolite detected”.
